“Also recorded” adds a separate entry of the source. Counter-ions that a name gives are not always drawn.
Columns and labels:
[1] = tested on: APP holoprotein; assay: Cell-associated APP (APP holoprotein), Western blot, cultured cortical astrocytes; details: for effect on cell-associated APP (APP holoprotein): PMA 5 μM or DNF 100 μM, hydrochloride; for effect on cell-associated APP (APP holoprotein) / effect on the increase in APP holoprotein stimulated by PG E2: 24 h; for effect on basal APP holoprotein: p>0.05; for effect on the increase in APP holoprotein stimulated by PG E2: PG E2 10 μM
Procedure: Astrocytes are isolated from cortices from postnatal rats. […] In brief, dissected cortices were dissociated by trypsinization and trituration through a flame-polished Pasteur pipette. Cells were plated onto poly-L-lysine coated 35- or 100 mm culture dishes at densities of about 10-25 cells/mm^2. […] Media are changed twice weekly. […] Pharmacological manipulations are performed in serum-free media on 7-14 DIV confluent astrocytes.
To detect cell-associated protein (APP or GFAP), astrocytes from 35 mm dishes are scraped in lysis buffer (60 mM Tris/HCl, 4% SDS, 20% glycerol, 1 mM dithiothreitol), ultrasonicated and boiled for 5 min. The total amount of cell protein per dish, estimated using the bicinchoninic acid assay, is not altered by pharmacological treatments. Bromphenol blue (0.1%) is added to each sample and equal amounts of protein (˜75 mg/lane) are loaded on 10% SDS-polyacrylamide gels.
(§2) The amount of media or cell protein loaded for sodium dodecyl sulfate-polyacrylamide gel electrophoresis (10-20% SDS PAGE; Bio-Rad) was normalized for the amount of protein per sample. […] After 2×10 min rinses in TBST, the membranes were incubated in TBST containing an appropriate antibody. Monoclonal antibodies 22C11 and GFAP (both from Boehringer-Mannheim) were used to detect the N-terminus of APP and glial fibrillary acidic protein respectively; antisera R37 and R98 (gifts of Dr. F. Kametani, Tokyo Institute of Psychiatry) were used to detected the C-terminus and KPI motifs of APP respectively; antiserum C8 (gift of Dr. D. Selkoe, Women's Hospital, Harvard Medical School, Cambridge, Mass.) was used to detect the C-terminus of APP.
After an overnight incubation, membranes were rinsed in TBST before being treated for 1h with a peroxidase-linked secondary antibody. After several rinses in TBST, protein bands were visualized on Kodak X-AR films by an enhanced chemiluminescence method (Amersham). Optical densities of the protein bands were quantitated by laser scanning densitometry (LKB, Bromma, Sweden), and normalized to the densities of those bands generated under control conditions.

[2] = tested on: secreted APP (APPs); assay: APPs secretion into the media of cultured cortical astrocytes, Western blot; assay type: cell-based, rat
Procedure: Astrocytes are isolated from cortices from postnatal rats. […] Media are changed twice weekly.
To detect secreted APP, culture media was collected after drug treatments and phenylmethylsulfonyl fluoride was added to a final concentration of 2 mM. The media samples were then applied to Sephadex PD-10 desalting columns (Pharmacia) and eluted with distilled water. Column eluates were frozen and dried by vacuum centrifugation. The lyophilized proteins were reconstituted in 25 μL water followed by 25 μL of 2X Laemmli gel loading buffer, and boiled for 5 min.
(§1) Assays of PI hydrolysis are conducted as previously reported. Also, measurements of APPs are conducted as previously reported.

[3] = tested on: PI hydrolysis; assay: PI hydrolysis in cultured astrocytes; assay type: cell-based, rat
Procedure: as §1

[4] = tested on: APP mRNA; assay: APP mRNA, Northern blot, cultured cortical astrocytes; details: for effect on the increase in APP mRNA stimulated by PG E2: EGTA or KN-93 100 μM, PG E2 10 μM
Procedure: Pharmacological manipulations are performed in serum-free media on 7-14 DIV confluent astrocytes.
Total RNA from astrocytes grown on 100 mm dishes is extracted by the acid guanidium thiocyanate-phenol-chloroform method. […] In brief, the medium was aspirated and the cells were scraped in 1 mL of TRI Reagent. After incubation for 15 min at room temperature, 0.2 ml chloroform was added, mixed vigorously with TRI Reagent and the mixture was stored for another 15 min at room temperature. After centrifugation at 12,000 g for 15 min, 0.5 ml isopropanol was added to the aqueous phase of the mixture to precipitate RNA. The RNA pellet collected by centrifugation (12,000 g, 15 min at 4° C.) was washed with 70% ethanol. once and solubilized in an appropriate amount of Formazol (Molecular Research Center, Cincinnati, Ohio). […] RNA was blotted onto Hybond polyvinyl membranes by overnight capillary transfer and fixed onto the membranes by UV light illumination. […] Membranes were dried and exposed to Kodak X-ray film for 24-48 h with an Amersham enhancer sheet. The relative amounts of mRNA obtained by hybridization were estimated using densitometric analysis of autoradiographs. The levels of APP mRNA were normalized to the amounts of G3PDH mRNA and expressed as a ratio to the levels of untreated, control cells.

[5] = tested on: cellular cAMP levels; assay: cAMP assay in cultured astrocytes; assay type: cell-based, rat; details: for effect on cellular cAMP levels stimulated by PG E2: EGTA or KN-93, PG E2 10 μM
Procedure: In brief, after aspirating the medium and rinsing twice with 1 ml ice cold PBS, the cells were scraped in 0.8 ml ice cold ethanol and sonicated. […] After resuspension in 120 μl Tris/EDTA buffer, two duplicate samples of 50 μl each were mixed with the binding protein, [8-^3H] adenosine 3′, 5′-cyclic phosphate tracer and incubated at 2-4° C. for 2 h. A charcoal suspension (100 μl) was added to the samples before centrifugation and 200 μl of the supernatant were removed for. scintillation counting. The amount of cyclic AMP (pmol/mg protein) was estimated by comparing to known standards, and normalized to the amounts of whole cell protein as determined by the bicinchoninic acid assay (Sigma).

[6] = tested on: APP synthesis; assay: APP synthesis (APP mRNA and holoprotein) in cultured cortical astrocytes; assay type: cell-based, rat
[7] = tested on: astrocytes; assay: Process formation of cultured astrocytes; assay type: cell-based, rat
[8] = tested on: glial fibrillary acidic protein (GFAP); assay: GFAP protein in cultured astrocytes, Western blot; assay type: cell-based, rat; details: 8Br-cAMP or NE
Procedure: To detect cell-associated protein (APP or GFAP), astrocytes from 35 mm dishes are scraped in lysis buffer (60 mM Tris/HCl, 4% SDS, 20% glycerol, 1 mM dithiothreitol), ultrasonicated and boiled for 5 min. […] Bromphenol blue (0.1%) is added to each sample and equal amounts of protein (˜75 mg/lane) are loaded on 10% SDS-polyacrylamide gels.
as §2
After an overnight incubation, membranes were rinsed in TBST before being treated for 1h with a peroxidase-linked secondary antibody. After several rinses in TBST, protein bands were visualized on Kodak X-AR films by an enhanced chemiluminescence method (Amersham). […]

[9] = DFU or DFP 10^-9-10^-3 M, 1 h, cultured astrocytes

CC1(C)OC(=O)C(c2cccc(F)c2)=C1c1ccc(S(C)(=O)=O)cc1 [DFU, 5,5-dimethyl-3-(3-fluorophenyl)-4-(4-methylsulphonyl)phenyl-2(5H)-furanone]
levels of cellular APP holoprotein [1, 9]: decreases | secretion of soluble APPs [2, 9]: increases; also recorded: promotes

C[C@H](N)Cc1cccc(C(F)(F)F)c1 [DNF, dexnorfenfluramine hydrochloride]
PI hydrolysis relative to untreated astrocytes ([3]; dexnorfenfluramine 100 μM, p<0.05): ~2.6 fold | effect on cell-associated APP (APP holoprotein) [1]: no effect | effect on cell-associated APP (APP holoprotein) ([1]; listed as dexnorfenfluramine): does not increase | effect on APP mRNA ([4]; PMA 5 μM or dexnorfenfluramine 100 μM): does not increase | APPs secretion relative to untreated cells ([2]; PMA 5 μM or DNF 100 μM, 1 hour, mAb22C11): significantly increases | APPs secretion, to that of untreated cells ([2]; PMA 5 μM, dexnorfenfluramine 100 μM): ~2.2 fold

O=C(O)CN(CCOCCOCCN(CC(=O)O)CC(=O)O)CC(=O)O [EGTA]
effect on basal cAMP levels ([5]; EGTA or KN-93 100 μM alone): no significant effect | effect on cellular cAMP levels stimulated by PG E2 [5]: Neither EGTA nor KN-93 had a significant effect | effect on basal APP holoprotein ([1]; EGTA or KN-93 100 μM alone): no significant effect | effect on the increase in APP holoprotein stimulated by PG E2 ([1]; EGTA or KN-93 100 μM): significantly inhibited | effect on the increase in APP mRNA stimulated by PG E2 ([4]; 24 h): significantly inhibited

C=CC[C@@H]1/C=C(\C)C[C@H](C)C[C@H](OC)[C@H]2O[C@@](O)(C(=O)C(=O)N3CCCC[C@H]3C(=O)O[C@H](/C(C)=C/[C@@H]3CC[C@@H](O)[C@H](OC)C3)[C@H](C)[C@@H](O)CC1=O)[C@H](C)C[C@@H]2OC [FK-506]
effect on basal cAMP levels ([5]; cyclosporin A or FK-506 (50 μM) alone): no significant effect | effect on basal APP holoprotein ([1]; cyclosporin A or FK-506 50 μM alone): no significant effect

NCCNS(=O)(=O)c1cccc2cnccc12 [H9]
effect on APP synthesis [6]: decrease or inhibit

Cl.Cl.O=S(=O)(NCCNC/C=C/c1ccc(Br)cc1)c1cccc2cnccc12 [H-89, H-89 dihydrochloride]
effect on the increase in APP holoprotein stimulated by PG E2 ([1]; H-89 100 μM): completely abolished | effect on PG E2-stimulated APP mRNA production ([4]; H-89 dihydrochloride): blocked

COc1ccc(S(=O)(=O)N(CCO)c2ccccc2CN(C)CC=Cc2ccc(Cl)cc2)cc1.O=P(O)(O)O [KN-93, N-[2-[[[3-(4′-chlorophenyl)-2-propenyl]methylamino]methyl]phenyl]-N-(2-hydroxyethyl)-4′-methoxy-benzenesulfonamide phosphate]
effect on basal cAMP levels ([5]; EGTA or KN-93 100 μM alone): no significant effect | effect on cellular cAMP levels stimulated by PG E2 [5]: Neither EGTA nor KN-93 had a significant effect | effect on basal APP holoprotein ([1]; EGTA or KN-93 100 μM alone): no significant effect | effect on the increase in APP holoprotein stimulated by PG E2 ([1]; EGTA or KN-93 100 μM): significantly inhibited | effect on the increase in APP mRNA stimulated by PG E2 ([4]; 24 h): significantly inhibited

NC[C@H](O)c1ccc(O)c(O)c1 [NE, norepinephrine]
PI hydrolysis ([3]; NE 50 μM, 1 h): significantly increased | cAMP formation ([5]; NE 50 μM, 1 h): significantly increased | APP holoprotein in cell lysates, of that seen in untreated cells ([1]; 8Br-cAMP or NE, antibodies 22C11 and R37): 200% | amount of cell-associated APP holoprotein relative to untreated cells ([1]; NE 50 μM, about 24 h, Western blot): ~1.7 fold | cell-associated APP relative to untreated control cells ([1]; NE 50 μM, mAb22C11, p<0.05): significantly more | APP holoprotein level versus NE concentration ([1]; NE 50-400 μM): do not increase linearly | process formation in astrocytes [7]: increase | APP mRNA levels versus untreated cells ([4]; 24 h, NE 50 or 100 μM, isoproterenol 50 μM, Northern blot): about 1.7 fold | APP mRNA level versus NE concentration ([4]; NE 50-400 μM): do not increase linearly | APP mRNA, of untreated cells ([4]; NE 50 or 100 μM, isoproterenol 50 μM): 180% | glial fibrillary acidic protein immunoreactivity [8]: increase

From patent publication US6469055B2, “Compositions and methods for treatment of neurological disorders and neurodegenerative diseases” (Massachusetts Institute of Technology, priority 1996, dated 2002)
